Laboratory results as given in ChEMBL document CHEMBL1154272, “Function-oriented biosynthesis of beta-lactone proteasome inhibitors in Salinispora tropica” (J Med Chem, 2009).
Each block holds one compound with its values, some of them ahead of it.

Key:
[1] = Inhibition of chymotrypsin like activity of yeast 20S proteasome beta 5 subunit after 30 mins by fluorescence assay; design: species or system Saccharomyces cerevisiae
HCT-116 = experiment: Cytotoxicity against human HCT116 cells after 72 hrs by MTS/PMS assay; assay type: functional, cell-based; conditions: HCT-116, 72 h

IC50 [1]: 9.3 nM
Structure (SMILES): C[C@@]12OC(=O)[C@]1([C@@H](O)C1CCCC1)NC(=O)[C@@H]2CCCl
IC50 (HCT-116): 54 nM

Structure (SMILES): CCC[C@H](O)[C@@]12NC(=O)[C@H](CCCl)[C@]1(C)OC2=O [SALINOSPORAMIDE X5]
IC50 [1]: 245 nM
IC50 (HCT-116): 1090 nM

Structure (SMILES): C[C@@]12OC(=O)[C@]1([C@@H](O)[C@@H]1C=CCC1)NC(=O)[C@@H]2CCCl [SALINOSPORAMIDE X7]
IC50 [1]: 2.2 nM
IC50 (HCT-116): 5.9 nM

IC50 [1]: 1030 nM
Structure (SMILES): C[C@@]12OC(=O)[C@]1([C@@H](O)c1ccccc1)NC(=O)[C@@H]2CCCl [SALINOSPORAMIDE X4]
IC50 (HCT-116): 6880 nM

IC50 [1]: 132 nM
Structure (SMILES): CCCC[C@H](O)[C@@]12NC(=O)[C@H](CCCl)[C@]1(C)OC2=O [SALINOSPORAMIDE X6]
IC50 (HCT-116): 1110 nM

Structure (SMILES): C[C@@]12OC(=O)[C@]1([C@@H](O)[C@@H]1C=CCCC1)NC(=O)[C@@H]2CCCl [MARIZOMIB]
IC50 [1]: 1.9 nM
IC50 (HCT-116): 16 nM

Structure (SMILES): CC(C)[C@H](O)[C@@]12NC(=O)[C@H](CCCl)[C@]1(C)OC2=O [ANTIPROTEALIDE]
IC50 [1]: 101 nM
IC50 (HCT-116): 777 nM

Structure (SMILES): C[C@@]12OC(=O)[C@]1([C@@H](O)C1CCCCC1)NC(=O)[C@@H]2CCCl
IC50 [1]: 27.5 nM
IC50 (HCT-116): 176 nM

Structure (SMILES): C[C@@]12OC(=O)[C@]1([C@@H](O)C1CCC1)NC(=O)[C@@H]2CCCl [SALINOSPORAMIDE X3]
IC50 [1]: 93.4 nM
IC50 (HCT-116): 188 nM
